Source: ChEMBL document CHEMBL1136062 (2002)
≈ marks a conversion by molar mass, not a printed value.

Legend:
Assay type in all cases: functional
Staphylococcus aureus [1] = assay: Tested in vitro for its antibacterial activity against methicillin resistant Staphylococcus aureus (MH76)
Staphylococcus aureus [2] = assay: In vitro antibacterial activity against vancomycin intermediate resistant Staphylococcus aureus (CL5706)
Enterococcus faecalis [3] = assay: Tested in vitro for its antibacterial activity against vancomycin resistant Enterococcus faecalis (MB4877)
Enterococcus faecium [4] = assay: Tested in vitro for its antibacterial activity against vancomycin sensitive Enterococcus faecium (RLA1)
Staphylococcus aureus [5] = assay: In vitro antibacterial activity against vancomycin intermediate resistant Staphylococcus aureus (CL5705)
Staphylococcus aureus [6] = assay: Tested in vitro for its antibacterial activity against methicillin sensitive Staphylococcus aureus (MB2985)
Enterococcus faecium [7] = assay: Tested in vitro for its antibacterial activity against vancomycin resistant Enterococcus faecium (MB5244)
Enterococcus faecium [8] = assay: Tested in vitro for its antibacterial activity against vancomycin resistant Enterococcus faecium (CL4931)
Staphylococcus aureus [9] = assay: Tested in vitro for its antibacterial activity against methicillin resistant Staphylococcus aureus (COL)
Enterococcus faecalis [10] = assay: Tested in vitro for its antibacterial activity against vancomycin sensitive Enterococcus faecalis (MB2864)
Staphylococcus aureus [11] = assay: Tested in vitro for its antibacterial activity against methicillin resistant Staphylococcus aureus (Mh76)

| SMILES | MIC (Staphylococcus aureus [1]) | MIC (Staphylococcus aureus [2]) | MIC (Enterococcus faecalis [3]) | MIC (Enterococcus faecium [4]) | MIC (Staphylococcus aureus [5]) | MIC (Staphylococcus aureus [6]) | MIC (Enterococcus faecium [7]) | MIC (Enterococcus faecium [8]) | MIC (Staphylococcus aureus [9]) | MIC (Enterococcus faecalis [10]) | MIC (Staphylococcus aureus [11]) |
| --- | --- | --- | --- | --- | --- | --- | --- | --- | --- | --- | --- |
| CN[C@H](CC(C)C)C(=O)N[C@H]1C(=O)N[C@@H](CC(N)=O)C(=O)N[C@H]2C(=O)N[C@H]3C(=O)N[C@H](C(=O)N[C@H](C(=O)O)c4cc(O)cc(O)c4-c4cc3ccc4O)[C@H](O)c3ccc(c(Cl)c3)Oc3cc2cc(c3OC2OC(C[N+](C)(C)CCO)C(O)C(O)C2OC2CC(C)(NCc3ccc(OCc4ccc(Cl)c(Cl)c4)cc3)C(O)C(C)O2)Oc2ccc(cc2Cl)[C@H]1O (some centres undefined) | 1 mg/L | 2 mg/L | 8 mg/L | 0.5 mg/L | 2 mg/L | 2 mg/L | 4 mg/L | > 64 mg/L | 1 mg/L | 2 mg/L |  |
| CN[C@H](CC(C)C)C(=O)N[C@H]1C(=O)N[C@@H](CC(N)=O)C(=O)N[C@H]2C(=O)N[C@H]3C(=O)N[C@H](C(=O)N[C@H](C(=O)O)c4cc(O)cc(O)c4-c4cc3ccc4O)[C@H](O)c3ccc(c(Cl)c3)Oc3cc2cc(c3OC2OC(C[N+](C)(C)C)C(O)C(O)C2OC2CC(C)(NCc3ccc(OCc4ccc(Cl)c(Cl)c4)cc3)C(O)C(C)O2)Oc2ccc(cc2Cl)[C@H]1O (some centres undefined) | 0.5 mg/L | 2 mg/L | 16 mg/L | 0.5 mg/L | 2 mg/L | 0.5 mg/L | 1 mg/L | > 64 mg/L | 0.5 mg/L | 1 mg/L |  |
| CN[C@H](CC(C)C)C(=O)N[C@H]1C(=O)N[C@@H](CC(N)=O)C(=O)N[C@H]2C(=O)N[C@H]3C(=O)N[C@H](C(=O)N[C@H](C(=O)O)c4cc(O)cc(O)c4-c4cc3ccc4O)[C@H](O)c3ccc(c(Cl)c3)Oc3cc2cc(c3OC2OC(C[N+](C)(C)Cc3ccccc3)C(O)C(O)C2OC2CC(C)(NCc3ccc(OCc4ccc(Cl)c(Cl)c4)cc3)C(O)C(C)O2)Oc2ccc(cc2Cl)[C@H]1O (some centres undefined) | 0.25 mg/L | 1 mg/L | 16 mg/L | 0.25 mg/L | 1 mg/L | 0.25 mg/L | 1 mg/L | > 64 mg/L | 0.5 mg/L | 2 mg/L |  |
| CN[C@H](CC(C)C)C(=O)N[C@H]1C(=O)N[C@@H](CC(N)=O)C(=O)N[C@H]2C(=O)N[C@H]3C(=O)N[C@H](C(=O)N[C@H](C(=O)O)c4cc(O)cc(O)c4-c4cc3ccc4O)[C@H](O)c3ccc(c(Cl)c3)Oc3cc2cc(c3OC2OC(C[N+](C)(C)CCN(C)C)C(O)C(O)C2OC2CC(C)(NCc3ccc(OCc4ccc(Cl)c(Cl)c4)cc3)C(O)C(C)O2)Oc2ccc(cc2Cl)[C@H]1O (some centres undefined) |  | 4 mg/L | > 64 mg/L | 1 mg/L | 2 mg/L | 2 mg/L | 8 mg/L | > 64 mg/L | 2 mg/L | 4 mg/L | 2 mg/L |
| CN[C@H](CC(C)C)C(=O)N[C@H]1C(=O)N[C@@H](CC(N)=O)C(=O)N[C@H]2C(=O)N[C@H]3C(=O)N[C@H](C(=O)N[C@H](C(=O)O)c4cc(O)cc(O)c4-c4cc3ccc4O)[C@H](O)c3ccc(c(Cl)c3)Oc3cc2cc(c3OC2OC(CN(C)C)C(O)C(O)C2OC2CC(C)(NCc3ccc(OCc4ccc(Cl)c(Cl)c4)cc3)C(O)C(C)O2)Oc2ccc(cc2Cl)[C@H]1O (some centres undefined) | 0.25 mg/L (≈ 0.144 µM) | 0.5 mg/L (≈ 0.287 µM) | 16 mg/L (≈ 9.19 µM) | ≤ 0.03 mg/L | 1 mg/L (≈ 0.574 µM) | ≤ 0.03 mg/L | 1 mg/L (≈ 0.574 µM) | 32 mg/L (≈ 18.4 µM) | 0.5 mg/L (≈ 0.287 µM) | 1 mg/L (≈ 0.574 µM) |  |
| CN[C@H](CC(C)C)C(=O)N[C@H]1C(=O)N[C@@H](CC(N)=O)C(=O)N[C@H]2C(=O)N[C@H]3C(=O)N[C@H](C(=O)N[C@H](C(=O)O)c4cc(O)cc(O)c4-c4cc3ccc4O)[C@H](O)c3ccc(c(Cl)c3)Oc3cc2cc(c3OC2OC(C[N+]34CCN(CC3)CC4)C(O)C(O)C2OC2CC(C)(NCc3ccc(OCc4ccc(Cl)c(Cl)c4)cc3)C(O)C(C)O2)Oc2ccc(cc2Cl)[C@H]1O (some centres undefined) | 1 mg/L | 2 mg/L | 8 mg/L | 0.5 mg/L | 2 mg/L | 1 mg/L | 1 mg/L | > 32 mg/L | 1 mg/L | 2 mg/L |  |
| CN[C@H](CC(C)C)C(=O)N[C@H]1C(=O)N[C@@H](CC(N)=O)C(=O)N[C@H]2C(=O)N[C@H]3C(=O)N[C@H](C(=O)N[C@H](C(=O)O)c4cc(O)cc(O)c4-c4cc3ccc4O)[C@H](O)c3ccc(c(Cl)c3)Oc3cc2cc(c3O[C@@H]2O[C@H](CO)[C@@H](O)[C@H](O)[C@H]2O[C@H]2C[C@](C)(N)[C@H](O)[C@H](C)O2)Oc2ccc(cc2Cl)[C@H]1O [VANCOMYCIN] |  | 8 mg/L (≈ 5.52 µM) | 2050 mg/L (≈ 1410 µM) |  |  |  | 16 mg/L (≈ 11 µM) | 2050 mg/L (≈ 1410 µM) |  |  |  |
| CNCC1OC(Oc2c3cc4cc2Oc2ccc(cc2Cl)[C@@H](O)[C@@H](NC(=O)[C@@H](CC(C)C)NC)C(=O)N[C@@H](CC(N)=O)C(=O)N[C@H]4C(=O)N[C@H]2C(=O)N[C@H](C(=O)N[C@H](C(=O)O)c4cc(O)cc(O)c4-c4cc2ccc4O)[C@H](O)c2ccc(c(Cl)c2)O3)C(OC2CC(C)(NCc3ccc(OCc4ccc(Cl)c(Cl)c4)cc3)C(O)C(C)O2)C(O)C1O (some centres undefined) | 0.12 mg/L (≈ 0.0695 µM) | 0.25 mg/L (≈ 0.145 µM) | 4 mg/L (≈ 2.32 µM) | 0.03 mg/L (≈ 0.0174 µM) | 1 mg/L (≈ 0.579 µM) | ≤ 0.03 mg/L | 1 mg/L (≈ 0.579 µM) | 32 mg/L (≈ 18.5 µM) | 0.12 mg/L (≈ 0.0695 µM) | 0.25 mg/L (≈ 0.145 µM) |  |
